1 compound from patent publication US20260232834A1, “CYTOTOXICITY TARGETING CHIMERAS FOR ANTIBODY-DRUG CONJUGATES AND BISPECIFIC ANTIBODIES” (GLAXOSMITHKLINE INTELLECTUAL PROPERTY DEVELOPMENT LIMITED, priority 2023, published 2026) can be followed below.

This experiment has as its system PSMA-expressing cells (LNCAP). Put plainly: Antibody-drug conjugate (ADC) cell killing assay, PSMA-expressing cells (CellTiter Glo). In kind it is cell-based. Particulars: 100 nM ADC plus serial diluted PSMA targeted CyTaC (max 20 μM), 48 hours, FIG. 3. From the text: An antibody-drug conjugate (ADC) cell killing assay was developed to screen cotinine targeted ADCs in a 384-well plate format. This assay utilized (i) an anti-cotinine antibody having a heavy chain sequence of SEQ ID NO: 9 and a light chain sequence of SEQ ID NO: conjugated with Deruxtecan and (ii) a Prostate Specific Membrane Antigen (PSMA) Cytotoxicity Targeting Chimera (CyTaC) to target PSMA expressing cells for death. The structures of the ADC and PSMA targeted CyTaC used in this experiment are shown below:
To screen ADCs, 10,000 PSMA-expressing cells (LNCAP) or 10,000 non-expressing cells (CHO) in media (RPMI 1640 (Gibco) containing 10% fetal bovine serum (Gibco)) were transferred to a 384-well plate (Greiner Bio-One). To each well containing cells, 100 nM ADC was added. Next, serial diluted PSMA targeted CyTaC (maximum concentration of 20 μM) was added to appropriate wells. The plates were then incubated for 48 hours at 37° C. with 5% CO2. Following the 48 hour incubation, an equal volume of CellTiter Glo (Promega) was added to each well and the plates were read on a PheraStar Plate Reader (BMG) to measure cell viability via Luminescence signal. Signal: background was calculated by dividing the signal of a test well by the signal obtained when no CyTaC was added. The % cell death was calculated by: (1-(test well signal/no CyTaC signal))*100. […]

For the compound `CN1C(=O)C[C@H](C(=O)NCCO[C@H]2CC[C@H](OCCCC(=O)N[C@H]3CC[C@H](C(=O)N[C@@H](Cc4ccc5ccccc5c4)C(=O)NCCCC[C@H](NC(=O)N[C@@H](CCC(=O)O)C(=O)O)C(=O)O)CC3)CC2)[C@H]1c1cccnc1` [PSMA targeted CyTaC], the “ADC mediated cell killing (% cell death)” value is “ADC mediated cell killing of PSMA expressing cells”.
